Data published in US20220281866A1, “5,8-DISUBSTITUTED-[1,2,4]TRIAZOLO[1,5-A]PYRIDINYL AND 5,8-DISUBSTITUTED-IMIDAZO[1,2-A]PYRIDINE DERIVATIVES USEFUL AS INHIBITORS OF ENTEROPEPTIDASE” (Janssen Pharmaceutica NV, priority 2019, published 2022).

Key:
Bovine trypsin = target: T1, Bovine trypsin (Bos taurus, UniProt P00760); assay: Biochemical Assay of Trypsin (T), H-D-CHA-AR-AMC substrate; conditions: 15 μM substrate, 0.025 nM Trypsin; for kinact/KI: 12-point dose-dependence, time-dependent inhibition, duplicate dilutions, read-out: Kinact/KI^App; for inhibition at 0.1 µM: compound 0.1 μM; for inhibition at 1 µM: compound 1 μM; for inhibition at 10 µM: compound 10 μM
T1 construct: purchased Sigma-Aldrich T1426
T1 sequence (P00760 24-246): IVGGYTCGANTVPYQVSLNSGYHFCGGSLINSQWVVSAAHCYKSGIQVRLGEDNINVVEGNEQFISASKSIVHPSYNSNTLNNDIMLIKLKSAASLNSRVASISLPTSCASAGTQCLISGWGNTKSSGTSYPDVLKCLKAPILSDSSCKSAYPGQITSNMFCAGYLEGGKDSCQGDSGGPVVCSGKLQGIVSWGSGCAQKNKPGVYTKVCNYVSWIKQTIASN
Experimental: Bovine trypsin was purchased from Sigma-Aldrich (Cat No. T1426), and 7-amino-4-methylcoumarin (AMC) conjugated peptide H-D-cyclohexylalanine (D-CHA)-AR-AMC was used as the substrate in the assay. The protease activity of trypsin was followed by measuring AMC production by the emission fluorescence intensity of AMC at 460 nm with the excitation at 375 nm, in the same assay buffer as used in the EP assay. The enzyme kinetic characterization studies yielded an average of KM to be 3.9±0.5 μM and the apparent turnover number kcat^app of 33.8±0.4 s^−1 (N=2).
Studies of compound inhibition against T were carried out under the conditions of 15 μM substrate and 0.025 nM Trypsin. Reaction progress curves were collected by reading the FI at 375/460 nm continuously for 1 hour at an interval of 1 minute. Similar to the procedure for Enteropeptidase described above, compounds of formula (I) were screened against Trypsin at 4 different concentrations to obtain the percent of inhibition at 10 μM, 1 μM, 0.1 μM and 0.01 μM, and accurate potencies of selected compounds against Trypsin were derived from detailed 12-point dose-dependence studies for time-dependent inhibitors.
(§1) Representative compounds of the present invention were tested according to the procedures as described in Biological Example 1 and Biological Example 2 above, with results as listed in Table 2 and Table 3, below. Results are reported as the %-inhibition (% Inh) or Kinact/KI value. Variability for the functional assay was typically within 20%. For the column headed Kinact/KI the listed measurement is the result of duplicate dilutions.

[1] = target: T2, Recombinant full-length human EP (Enteropeptidase) (Homo sapiens, UniProt P98073); assay: In vitro inhibition potencies against Enteropeptidase (EP), fluorescent peptide GDDDDK-naphthylamine substrate; type: biochemical; conditions: 300 μM substrate, 1.25 nM EP; for kinact/KI: 12-point dose-dependence, time-dependent inhibition, duplicate dilutions, read-out: kinact/KI^App; for inhibition at 0.1 µM: compound 0.1 μM; for inhibition at 1 µM: compound 1 μM; for inhibition at 10 µM: compound 10 μM
T2 construct: Recombinant full-length human EP (PeproTech, Cat #450-48C); purchased PeproTech 450-48C
Experimental: In vitro inhibition potencies against Enteropeptidase (EP) Recombinant full-length human EP (PeproTech, Cat #450-48C) was used in this biochemical assay, with a quenched fluorescent labeled peptide GDDDDK-naphthylamine (NA) (Sigma, Cat #G5261) as the substrate in a buffer of 50 mM Tris-HCl pH 7.4, 200 mM NaCl and 0.01% Triton X-100. The enzyme activity was measured by following the formation of the cleavage product […](NA) by monitoring the fluorescence intensity (FI) at excitation/emission wavelengths of 340/410 nm. The steady-state kinetic characterization studies yielded an average of KM to be 412±22 μM and the apparent turnover number kcat^app of 11.8±0.4 s^−1 (N=2).
Compound inhibition studies were carried out under the conditions of 300 μM substrate and 1.25 nM EP. Reaction progress curves were collected by reading the FI at 340/410 nm continuously for 1 hour at an interval of 1 minute.
To screen compounds of formula (I), inhibition was studied at 4 different compound concentrations of 10 μM, 1 μM, 0.1 μM and 0.01 μM. Initial velocity of the reaction was determined, and percent of inhibition was calculated by comparing to the reaction in the absence of compound.
Accurate measurements of the inhibition potencies of selected compounds were studied in a 12-point dose-dependence fashion. […] Compound potency was measured by determining the inactivation rate constant (kobs) following the reaction change from the initial velocity vi to the steady-state velocity vs at various compound concentrations. The inactivation rate constants (kobs), were derived by fitting the reaction progress curves to eq. 1.
where YT is the detection signal of the reaction at time t, vi and vs are the initial and the steady-state velocities of the reaction, t is the reaction time. Y0 is the background signal (when t=0).
Compound binding mechanism was shown by plotting kobs˜[compound]. Hyperbolic fitting to eq. 2
conforms to a two-step binding mechanism as shown in Scheme BIO-1.
The plateau of the curve is the forward step rate constant of the isomerization step k3, KI^app is the inhibitor concentration that leads to half-maximal rate of inhibition of enzyme under the assay conditions. Compound inhibition potency was reported by the value of k3/KI^app.
A linear dependence of eq.3
indicates a one-step binding mechanism as shown in Scheme BIO-2
Slope of the linear fit gives the second-order rate constant of the compound binding k1, which is used to represent the compound inhibition potency.
as §1

T2 sequence (P98073 whole entry): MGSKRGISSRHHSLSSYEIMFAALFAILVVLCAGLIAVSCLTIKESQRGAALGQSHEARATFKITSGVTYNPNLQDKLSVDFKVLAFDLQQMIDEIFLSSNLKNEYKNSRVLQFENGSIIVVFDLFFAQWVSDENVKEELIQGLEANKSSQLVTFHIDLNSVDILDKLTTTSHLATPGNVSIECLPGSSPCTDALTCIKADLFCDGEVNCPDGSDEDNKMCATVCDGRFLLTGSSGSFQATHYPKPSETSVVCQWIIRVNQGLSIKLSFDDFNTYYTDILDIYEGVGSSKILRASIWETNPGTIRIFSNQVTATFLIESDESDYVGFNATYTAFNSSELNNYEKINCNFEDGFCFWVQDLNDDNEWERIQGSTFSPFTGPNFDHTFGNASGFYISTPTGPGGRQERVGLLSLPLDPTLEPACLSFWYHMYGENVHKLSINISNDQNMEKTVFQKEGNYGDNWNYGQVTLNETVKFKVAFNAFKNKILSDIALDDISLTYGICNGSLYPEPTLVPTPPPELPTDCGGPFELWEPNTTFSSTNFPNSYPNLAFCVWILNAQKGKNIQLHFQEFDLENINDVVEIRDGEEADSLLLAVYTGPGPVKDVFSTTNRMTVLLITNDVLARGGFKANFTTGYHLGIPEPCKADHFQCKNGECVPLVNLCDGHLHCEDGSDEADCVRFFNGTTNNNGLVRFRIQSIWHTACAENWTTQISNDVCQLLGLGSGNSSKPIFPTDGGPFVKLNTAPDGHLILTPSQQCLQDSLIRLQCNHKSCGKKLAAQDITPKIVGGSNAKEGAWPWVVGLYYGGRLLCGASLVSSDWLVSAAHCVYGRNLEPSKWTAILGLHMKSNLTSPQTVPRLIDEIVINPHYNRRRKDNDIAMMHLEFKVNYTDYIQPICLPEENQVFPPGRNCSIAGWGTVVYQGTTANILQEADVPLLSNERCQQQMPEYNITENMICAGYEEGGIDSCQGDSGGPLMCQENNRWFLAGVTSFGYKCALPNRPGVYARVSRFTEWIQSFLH

kinact/KI (Bovine trypsin)	inhibition at 0.1 µM (Bovine trypsin)	inhibition at 1 µM (Bovine trypsin)	inhibition at 10 µM (Bovine trypsin)	kinact/KI [1]	inhibition at 0.1 µM [1]	inhibition at 1 µM [1]	inhibition at 10 µM [1]	SMILES
159000 M⁻¹ s⁻¹	97.2%	100%	100%	130000 M⁻¹ s⁻¹	97.8%	100%	100%	N=C(N)Nc1ccc(C(=O)Oc2ccc(CC(=O)O)n3ncnc23)cc1 [Compound 1, 2-{8-[(4-carbamimidamidophenyl)carbonyloxy]-[1,2,4]triazolo[1,5-a]pyridin-5-yl}acetic acid]
	61%	100%	100%	24400 M⁻¹ s⁻¹	27.6%	95.1%	100%	N=C(N)Nc1ccc(C(=O)Oc2ccc(CCC(=O)O)n3ccnc23)cc1 [Compound 2, 3-(8-(4-guanidinobenzoyloxy)imidazo[1,2-a]pyridin-5-yl)propanoic acid]
	99.8%	100%	100%		35%	101%	100%	N=C(N)Nc1ccc(C(=O)Oc2ccc(CCC(=O)O)n3ncnc23)cc1 [Compound 3, 3-(8-(4-guanidinobenzoyloxy)-[1,2,4]triazolo[1,5-a]pyridin-5-yl)propanoic acid]
	99.7%	100%	100%		48.1%	101%	100%	N=C(N)Nc1ccc(C(=O)Oc2ccc(CC(=O)NCC(=O)O)n3ncnc23)cc1 [Compound 4, 2-(2-(8-(4-guanidinobenzoyloxy)-[1,2,4]triazolo[1,5-a]pyridin-5-yl)acetamido)acetic acid]
	98.3%	100%	100%		48.3%	101%	100%	N=C(N)Nc1ccc(C(=O)Oc2ccc(CC(=O)NC(CC(=O)O)C(=O)O)n3ncnc23)cc1 (stereo not drawn) [Compound 5, 2-(2-(8-(4-guanidinobenzoyloxy)-[1,2,4]triazolo[1,5-a]pyridin-5-yl)acetamido)succinic acid]
	89.6%	99.9%	100%		20.9%	72.9%	101%	N=C(N)Nc1ccc(C(=O)Oc2ccc(CC(=O)N(CC(=O)O)CC(=O)O)n3ncnc23)cc1 [Compound 6, 2,2′-(2-(8-(4-guanidinobenzoyloxy)-[1,2,4]triazolo[1,5-a]pyridin-5-yl)acetamido)diacetic acid]
	94.1%	100%	100%		37.8%	100%	100%	N=C(N)Nc1ccc(C(=O)Oc2ccc(CC(=O)NC(CCC(=O)O)(CCC(=O)O)CCC(=O)O)n3ncnc23)cc1 [Compound 7, 4-(2-carboxyethyl)-4-(2-(8-(4-guanidinobenzoyloxy)-[1,2,4]triazolo[1,5-a]pyridin-5-yl)acetamido)heptanedioic acid]
163000 M⁻¹ s⁻¹	98.8%	100%	99.9%	181000 M⁻¹ s⁻¹	101%	100%	100%	CS(=O)(=O)NC(=O)Cc1ccc(OC(=O)c2ccc(NC(=N)N)cc2)c2ncnn12 [Compound 8, 5-(2-(methylsulfonamido)-2-oxoethyl)-[1,2,4]triazolo[1,5-a]pyridin-8-yl4-guanidinobenzoate]
111000 M⁻¹ s⁻¹	96.3%	101%	101%	210000 M⁻¹ s⁻¹	101%	100%	100%	N=C(N)Nc1ccc(C(=O)Oc2ccc(CC(=O)O)n3ccnc23)cc1 [Compound 9, 2-(8-(4-guanidinobenzoyloxy)imidazo[1,2-a]pyridin-5-yl)acetic acid]
	93.8%	99.9%	99.8%		82%	100%	100%	N=C(N)Nc1ccc(C(=O)Oc2ccc(CC(=O)O)n3ncnc23)s1 [Compound 10, 2-(8-(5-guanidinothiophene-2-carbonyloxy)-[1,2,4]triazolo[1,5-a]pyridin-5-yl)acetic acid]
	99.3%	100%	100%		89.7%	101%	100%	N=C(N)Nc1ccc(C(=O)Oc2ccc(Cc3nn[nH]n3)n3ncnc23)cc1 [Compound 11, 5-((2H-tetrazol-5-yl)methyl)-[1,2,4]triazolo[1,5-a]pyridin-8-yl 4-guanidinobenzoate]
	13.8%	72.4%	99.9%		20.8%	87.1%	101%	COc1cc(C(=O)Oc2ccc(CC(=O)O)n3ncnc23)ccc1NC(=N)N [Compound 12, 2-(8-(4-guanidino-3-methoxybenzoyloxy)-[1,2,4]triazolo[1,5-a]pyridin-5-yl)acetic acid]
	0.9%	7.6%	45%		-1.5%	15.8%	65%	N=C(N)Nc1ccc(C(=O)Oc2ccc(CC(=O)O)n3ncnc23)cc1I [Compound 13, 2-(8-(4-guanidino-3-iodobenzoyloxy)-[1,2,4]triazolo[1,5-a]pyridin-5-yl)acetic acid]
69700 M⁻¹ s⁻¹	87.6%	100%	100%	72800 M⁻¹ s⁻¹	96.8%	100%	100%	N=C(N)Nc1ccc(C(=O)Oc2ccc(CC(=O)O)n3ncnc23)cc1F [Compound 14, 2-(8-(3-fluoro-4-guanidinobenzoyloxy)-[1,2,4]triazolo[1,5-a]pyridin-5-yl)acetic acid]
	-0.1%	8.4%	35.5%		1.3%	6.3%	36.7%	Cc1cc(C(=O)Oc2ccc(CC(=O)O)n3ncnc23)ccc1NC(=N)N [Compound 15, 2-(8-(4-guanidino-3-methylbenzoyloxy)-[1,2,4]triazolo[1,5-a]pyridin-5-yl)acetic acid]
